molecular target: T1, PIP4K2C (Homo sapiens, UniProt Q8TBX8); experiment: HiBiT PIP4K2C degradation assay in MOLT-4 cells (endogenous PIP4K2C C-terminally tagged with HiBiT); format: cell-based; design: untagged in primary human PBMCs and monocyte-derived dendritic cells; conditions: 6 hours of incubation time, rather than 24 hours; MOLT-4, top concentration 10 micromolar; read-out: HiBIT-degradation MOLT4 PIP4k2C DC50 (6 hours, marked *)
T1 sequence (Q8TBX8 1-421): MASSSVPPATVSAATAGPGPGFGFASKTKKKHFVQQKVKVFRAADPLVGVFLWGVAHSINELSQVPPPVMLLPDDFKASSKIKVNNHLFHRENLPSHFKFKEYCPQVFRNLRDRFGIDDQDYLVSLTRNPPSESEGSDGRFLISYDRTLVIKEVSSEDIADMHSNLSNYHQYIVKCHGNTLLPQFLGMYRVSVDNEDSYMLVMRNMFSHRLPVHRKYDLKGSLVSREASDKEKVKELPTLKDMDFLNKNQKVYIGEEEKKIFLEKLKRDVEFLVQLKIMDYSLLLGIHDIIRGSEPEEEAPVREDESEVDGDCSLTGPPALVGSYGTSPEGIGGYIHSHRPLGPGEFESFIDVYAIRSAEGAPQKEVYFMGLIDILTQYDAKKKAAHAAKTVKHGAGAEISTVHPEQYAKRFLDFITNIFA
Outline: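 DC50 derived by Hill fit of luminescence from Nano-Glo HiBiT lytic detection. Cells were HiBiT knock-in MOLT-4 (C-terminal tag on endogenous PIP4K2C), exposed 6 h or 24 h at 37 C to compound, top concentration 10 micromolar, 3-fold steps, 10 points, duplicates.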

Compound | DC50 [µM]
O=C1CCC(Nc2ccc(N3CCC(CC4CCN(C(=O)[C@H]5CC[C@H](Nc6ncc(F)c(-c7cccc(-n8ccccc8=O)c7)n6)CC5)CC4)CC3)c(F)c2)C(=O)N1 (stereo partly drawn) [Compound 400, trans-3-((3-fluoro-4-(4-((1-(4-((5-fluoro-4-(3-(2-oxopyridin-1(2H)-yl)phenyl)pyrimidin-2-yl)amino)cyclohexane-1-carbonyl)piperidin-4-yl)methyl)piperidin-1-yl)phenyl)amino)piperidine-2,6-dione] | < 0.5
O=C1CCC(Nc2ccc(C3CCN([C@H]4CC[C@H](NC(=O)[C@H]5CC[C@H](Nc6ncc(F)c(-c7cccc(-n8ccccc8=O)c7)n6)CC5)CC4)CC3)c(F)c2)C(=O)N1 (stereo partly drawn) [Compound 401, trans-(1r,4R)—N-((1r,4R)-4-(4-(4-((2,6-dioxopiperidin-3-yl)amino)-2-fluorophenyl)piperidin-1-yl)cyclohexyl)-4-((5-fluoro-4-(3-(2-oxopyridin-1(2H)-yl)phenyl)pyrimidin-2-yl)amino)cyclohexane-1-carboxamide] | < 0.5
O=C1CCC(Nc2ccc(C3CCN([C@H]4CC[C@H](NC(=O)[C@H]5CC[C@H](Nc6ncc(F)c(-c7cccc(-c8ccc[nH]c8=O)c7)n6)CC5)CC4)CC3)c(F)c2)C(=O)N1 (stereo partly drawn) [Compound 402, trans-(1r,4R)—N-((1r,4R)-4-(4-(4-((2,6-dioxopiperidin-3-yl)amino)-2-fluorophenyl)piperidin-1-yl)cyclohexyl)-4-((5-fluoro-4-(3-(2-oxo-1,2-dihydropyridin-3-yl)phenyl)pyrimidin-2-yl)amino)cyclohexane-1-carboxamide] | < 0.5
O=C1CCC(Nc2ccc(N3CCC(OC4CCN(C(=O)[C@H]5CC[C@H](Nc6ncc(F)c(-c7cccc(-c8ccc[nH]c8=O)c7)n6)CC5)CC4)CC3)c(F)c2)C(=O)N1 (stereo partly drawn) [Compound 403, trans-3-((3-fluoro-4-(4-((1-(4-((5-fluoro-4-(3-(2-oxo-1,2-dihydropyridin-3-yl)phenyl)pyrimidin-2-yl)amino)cyclohexane-1-carbonyl)piperidin-4-yl)oxy)piperidin-1-yl)phenyl)amino)piperidine-2,6-dione] | < 0.5
Cn1nc(C2CCC(=O)NC2=O)c2ccc(N3CCN([C@H]4CC[C@H](NC(=O)[C@H]5CC[C@H](Nc6ncc(F)c(-c7cccc(-c8ccc[nH]c8=O)c7)n6)CC5)CC4)CC3)cc21 (stereo partly drawn) [Compound 404, trans-(1r,4R)—N-((1r,4R)-4-(4-(3-(2,6-dioxopiperidin-3-yl)-1-methyl-1H-indazol-6-yl)piperazin-1-yl)cyclohexyl)-4-((5-fluoro-4-(3-(2-oxo-1,2-dihydropyridin-3-yl)phenyl)pyrimidin-2-yl)amino)cyclohexane-1-carboxamide] | > 5
O=C1CCC(Nc2ccc(N3CCC(N4CCC(C(=O)N[C@H]5CC[C@H](Nc6ncc(F)c(-c7cccc(-n8ccccc8=O)c7)n6)CC5)CC4)C(F)C3)c(F)c2)C(=O)N1 (some centres unmarked) [Compound 405, 1′-(4-((2,6-dioxopiperidin-3-yl)amino)-2-fluorophenyl)-3′-fluoro-N-((1r,4r)-4-((5-fluoro-4-(3-(2-oxopyridin-1(2H)-yl)phenyl)pyrimidin-2-yl)amino)cyclohexyl)-[1,4′-bipiperidine]-4-carboxamide] | < 0.5
O=C1CCC(Nc2ccc(N3CCC(N4CCC(C(=O)N[C@H]5CC[C@H](Nc6ncc(F)c(-c7cccc(-c8ccc[nH]c8=O)c7)n6)CC5)CC4)C(F)C3)c(F)c2)C(=O)N1 (some centres unmarked) [Compound 406, 1′-(4-((2,6-dioxopiperidin-3-yl)amino)-2-fluorophenyl)-3′-fluoro-N-((1r,4r)-4-((5-fluoro-4-(3-(2-oxo-1,2-dihydropyridin-3-yl)phenyl)pyrimidin-2-yl)amino)cyclohexyl)-[1,4′-bipiperidine]-4-carboxamide] | < 0.5
O=C1CCC(Nc2ccc(N3CCC(CC4CCN(C(=O)[C@H]5CC[C@H](Nc6ncc(F)c(-c7cccc(-c8ccc[nH]c8=O)c7)n6)CC5)CC4)CC3)c(F)c2)C(=O)N1 (stereo partly drawn) [Compound 407, trans-3-((3-fluoro-4-(4-((1-(4-((5-fluoro-4-(3-(2-oxo-1,2-dihydropyridin-3-yl)phenyl)pyrimidin-2-yl)amino)cyclohexane-1-carbonyl)piperidin-4-yl)methyl)piperidin-1-yl)phenyl)amino)piperidine-2,6-dione] | < 0.5

Continued, values first:

DC50 [µM] | Compound
< 0.5 | O=C1CCC(Nc2ccc(C3CCN(CC4CCN(C(=O)[C@H]5CC[C@H](Nc6ncc(F)c(-c7cccc(-c8ccc[nH]c8=O)c7)n6)CC5)CC4)CC3(F)F)c(F)c2)C(=O)N1 (stereo partly drawn) [Compound 408, trans-3-[4-[3,3-difluoro-1-[[1-[4-[[5-fluoro-4-[3-(2-oxo-1H-pyridin-3-yl)phenyl]pyrimidin-2-yl]amino]cyclohexanecarbonyl]-4-piperidyl]methyl]-4-piperidyl]-3-fluoro-anilino]piperidine-2,6-dione]
< 0.5 | O=C1CCC(Nc2ccc(C3CCN(CC4(O)CCN(C(=O)[C@H]5CC[C@H](Nc6ncc(F)c(-c7cccc(-n8ccccc8=O)c7)n6)CC5)CC4)CC3)c(F)c2)C(=O)N1 (stereo partly drawn) [Compound 409, trans-3-((3-fluoro-4-(1-((1-(-4-((5-fluoro-4-(3-(2-oxopyridin-1(2H)-yl)phenyl)pyrimidin-2-yl)amino)cyclohexane-1-carbonyl)-4-hydroxypiperidin-4-yl)methyl)piperidin-4-yl)phenyl)amino)piperidine-2,6-dione]
< 0.5 | O=C1CCC(Nc2ccc(N3CCC(O)(CN4CCN(C(=O)[C@H]5CC[C@H](Nc6ncc(F)c(-c7cccc(-n8ccccc8=O)c7)n6)CC5)CC4)CC3)c(F)c2)C(=O)N1 (stereo partly drawn) [Compound 410, trans-3-((3-fluoro-4-(4-((4-(4-((5-fluoro-4-(3-(2-oxopyridin-1(2H)-yl)phenyl)pyrimidin-2-yl)amino)cyclohexane-1-carbonyl)piperazin-1-yl)methyl)-4-hydroxypiperidin-1-yl)phenyl)amino)piperidine-2,6-dione]
> 5 | O=C1CCC(Nc2ccc(N3CCN([C@H]4CC[C@H](C(=O)N[C@H]5CC[C@H](Nc6ncc(F)c(-c7cccc(N8CCOC8=O)c7)n6)CC5)CC4)CC3)c(F)c2)C(=O)N1 (stereo partly drawn) [Compound 411, trans-(1r,4R)-4-(4-(4-((2,6-dioxopiperidin-3-yl)amino)-2-fluorophenyl)piperazin-1-yl)-N-((1r,4R)-4-((5-fluoro-4-(3-(2-oxooxazolidin-3-yl)phenyl)pyrimidin-2-yl)amino)cyclohexyl)cyclohexane-1-carboxamide]
< 0.5 | O=C1CC[C@@H](Nc2ccc(N3CCN([C@H]4CC[C@H](C(=O)N[C@H]5CC[C@H](Nc6ncc(F)c(-c7cccc(N8CCCCC8=O)c7)n6)CC5)CC4)CC3)c(F)c2)C(=O)N1 [Compound 412, trans-(1r,4R)-4-(4-(4-((2,6-dioxopiperidin-3-yl)amino)-2-fluorophenyl)piperazin-1-yl)-N-((1r,4R)-4-((5-fluoro-4-(3-(2-oxopiperidin-1-yl)phenyl)pyrimidin-2-yl)amino)cyclohexyl)cyclohexane-1-carboxamide]
< 0.5 | O=C1CCC(Nc2ccc(N3CCC(OC4CCN(C(=O)[C@H]5CC[C@H](Nc6ncc(F)c(-c7cccc(N8CCCCC8=O)c7)n6)CC5)CC4)CC3)c(F)c2)C(=O)N1 (stereo partly drawn) [Compound 413, trans-3-((3-fluoro-4-(4-((1-(4-((5-fluoro-4-(3-(2-oxopiperidin-1-yl)phenyl)pyrimidin-2-yl)amino)cyclohexane-1-carbonyl)piperidin-4-yl)oxy)piperidin-1-yl)phenyl)amino)piperidine-2,6-dione]
< 0.5 | O=C1CCC(Nc2ccc(N3CCC(CC4CCN(C(=O)[C@H]5CC[C@H](Nc6ncc(F)c(-c7cccc(N8CCCCC8=O)c7)n6)CC5)CC4)CC3)c(F)c2)C(=O)N1 (stereo partly drawn) [Compound 414, trans-3-((3-fluoro-4-(4-((1-(-4-((5-fluoro-4-(3-(2-oxopiperidin-1-yl)phenyl)pyrimidin-2-yl)amino)cyclohexane-1-carbonyl)piperidin-4-yl)methyl)piperidin-1-yl)phenyl)amino)piperidine-2,6-dione]
< 0.5 | O=C1CCC(Nc2ccc(N3CCC(CN4CCN(C(=O)[C@H]5CC[C@H](Nc6ncc(F)c(-c7cccc(N8CCCCC8=O)c7)n6)CC5)CC4)CC3)c(F)c2)C(=O)N1 (stereo partly drawn) [Compound 415, trans-3-((3-fluoro-4-(4-((4-(4-((5-fluoro-4-(3-(2-oxopiperidin-1-yl)phenyl)pyrimidin-2-yl)amino)cyclohexane-1-carbonyl)piperazin-1-yl)methyl)piperidin-1-yl)phenyl)amino)piperidine-2,6-dione]
< 0.5 | O=C1CCC(Nc2ccc(N3CCN(C[C@H]4CC[C@H](CNC(=O)[C@H]5CC[C@H](Nc6ncc(F)c(-c7cccc(-n8ccccc8=O)c7)n6)CC5)CC4)CC3)c(F)c2)C(=O)N1 (stereo partly drawn) [Compound 416, trans-N-((trans-4-((4-(4-((2,6-dioxopiperidin-3-yl)amino)-2-fluorophenyl)piperazin-1-yl)methyl)cyclohexyl)methyl)-4-((5-fluoro-4-(3-(2-oxopyridin-1(2H)-yl)phenyl)pyrimidin-2-yl)amino)cyclohexane-1-carboxamide]

Source: patent US20260355196A1, “INHIBITORS AND DEGRADERS OF PIP4K PROTEIN” (Larkspur Biosciences, Inc., priority 2023, published 2026)
